System: AML3
Assay: Cell proliferation of cancerous cell lines
Assay type: cell-based
Conditions: AML3; read-out: Antineoplastic effect of tested compounds on cell proliferation of cancerous AML3 cells, IC50

Row | IC50 [µM] | Structure (SMILES)
1 | 1 to 2 | Cn1nnc(-c2ccc3c(c2)[nH]c2nc(Cc4ccccc4)nc(NCCCCCCCCCCN)c23)n1
2 | 1 to 2 | Cc1nc(-c2ccc3c(c2)[nH]c2nc(Cc4ccccc4)nc(NCCCN4CCCCC4)c23)no1
3 | 0.5 to 1 | CCCCCc1nc(NCCCN2CCCCC2)c2c(n1)[nH]c1cc(C(=O)OC)ccc12
4 | 2 to 5 | COC(=O)c1ccc2c(c1)[nH]c1nc(C)nc(NCCCN3CCCCC3)c12
5 | 1 to 2 | Cn1nnc(-c2ccc3c(c2)[nH]c2nc(Cc4ccccc4)nc(NCCN)c23)n1
6 | 2 to 5 | COC(=O)c1ccc2c(c1)[nH]c1nc(Cc3cccc(OC)c3)nc(NCCCN3CCCCC3)c12
7 | < 0.5 | COC(=O)c1ccc2c(c1)[nH]c1nc(Cc3ccccc3)nc(NCCCN(C)CCCNC(=N)N)c12
8 | < 0.5 | Cn1nnc(-c2ccc3c(c2)[nH]c2nc(Cc4ccccc4)nc(NCCCN4CCCC4)c23)n1
9 | 2 to 5 | C#CCOC(CNc1nc(Cc2ccccc2)nc2[nH]c3cc(C(=O)OC)ccc3c12)CN1CCCCC1 (stereo not shown)
10 | 2 to 5 | COC(=O)c1ccc2c(c1)[nH]c1nc(Cc3cccc(F)c3)nc(NCCCN(C)CCCN)c12
11 | 2 to 5 | Cn1nnc(-c2ccc3c(c2)[nH]c2nc(Cc4ccccc4)nc(NCCCNCCCN)c23)n1
12 | 2 to 5 | COC(=O)c1ccc2c(c1)[nH]c1nc(Cc3ccccc3)nc(Nc3cccc(N)c3)c12
13 | 2 to 5 | CC(=O)NCCNc1nc(Cc2ccccc2)nc2[nH]c3cc(-c4nnn(C)n4)ccc3c12
14 | 0.5 to 1 | COC(=O)c1ccc2c(c1)[nH]c1nc(C(O)c3ccccc3)nc(NCCCN3CCCCC3)c12 (stereo not shown)
15 | 1 to 2 | COC(=O)c1cnc2c(c1)[nH]c1nc(Cc3ccc4ccccc4c3)nc(NCCCN3CCCCC3)c12
16 | 1 to 2 | COC(=O)c1ccc2c(c1)[nH]c1ccnc(NCCCN3CCCCC3)c12
17 | 2 to 5 | COC(=O)c1ccc2c(c1)[nH]c1ncnc(NCCN3CCCCC3)c12
18 | 2 to 5 | C#Cc1cccc(Cc2nc(NCCN(C)CCN)c3c(n2)[nH]c2cc(-c4nnn(C)n4)ccc23)c1
19 | 1 to 2 | COC(=O)c1ccc2c(c1)[nH]c1nc(Cc3ccsc3)nc(N[C@H]3CC[C@H](N)CC3)c12
20 | < 0.5 | COC(=O)c1cnc2c(c1)Cc1nc(Cc3ccccc3)nc(NCCCN(C)CCCNc3nc(Cc4ccccc4)nc4[nH]c5cc(C(=O)OC)cnc5c34)c1-2
21 | 1 to 2 | COC(=O)c1ccc2c(c1)[nH]c1nc(Cc3ccccc3)nc(CCCCN3CCCCC3)c12
22 | 0.5 to 1 | CN(C)CCNc1ncnc2[nH]c3cc(-c4nnn(C)n4)ccc3c12
23 | 1 to 2 | CNCCCNc1nc(Cc2ccccc2)nc2[nH]c3cc(C(=O)OC)ccc3c12
24 | 2 to 5 | COC(=O)c1ccc2c(c1)[nH]c1nc(Cc3cccnc3)nc(N3CCC(N4CCCC4)CC3)c12

Row | IC50 [µM] | Structure (SMILES)
25 | 1 to 2 | COC(=O)c1ccc2c(c1)[nH]c1nc(Cc3ccccc3)nc(NCCCCCCCN)c12
26 | 0.5 to 1 | COC(=O)c1ccc2c(c1)[nH]c1nc(Cc3ccccc3)nc(NCCNC3=NCCC3)c12
27 | 1 to 2 | Cn1nnc(-c2ccc3c(c2)[nH]c2ncnc(NCC(O)CN4CCCCC4)c23)n1 (stereo not shown)
28 | 1 to 2 | Cn1nnc(-c2ccc3c(c2)[nH]c2ncnc(NCCCCN4CCCCC4)c23)n1
29 | 2 to 5 | c1csc(-c2ccc3c(c2)[nH]c2ncnc(NCCCN4CCCCC4)c23)c1
30 | < 0.5 | CNS(=O)(=O)c1cccc(Nc2ncnc3[nH]c4cc(C(=O)OC)ccc4c23)c1
31 | 1 to 2 | CN(C)CCCN(C)c1ncnc2[nH]c3cc(-c4nnn(C)n4)ccc3c12
32 | 2 to 5 | COC(=O)c1ccc2c(c1)[nH]c1nc(Cc3ccccc3)nc(Nc3cccc(NC(C)=O)c3)c12
33 | 1 to 2 | C#CCNCCCN(C)CCCNc1nc(Cc2ccccc2)nc2[nH]c3cc(C(=O)OC)ccc3c12
34 | 2 to 5 | COC(=O)c1ccc2c(c1)[nH]c1nc(Cc3ccccc3)nc(NCCCN(C)CC(O)COCc3ccccc3)c12 (stereo not shown)
35 | 0.5 to 1 | COC(=O)c1ccc2c(c1)[nH]c1nc(Cc3ccccc3)nc(NCCCCCN(C)C)c12
36 | 0.5 to 1 | COC(=O)c1ccc2c(c1)[nH]c1nc(Cc3ccccc3)nc(NCCCCCCN(C)C)c12
37 | 2 to 5 | COC(=O)c1ccc2c(c1)[nH]c1nc(Cc3ccccc3)cc(NCCCN3CCCCC3)c12
38 | 2 to 5 | COC(=O)c1ccc2c(c1)[nH]c1nc(Cc3ccccc3)nc(NCCNC(=O)C(F)F)c12
39 | 2 to 5 | COC(=O)c1ccc2c(c1)[nH]c1nc(Cc3ccccn3)nc(NCCCN3CCCCC3)c12
40 | 0.5 to 1 | Cn1nnc(-c2ccc3c(c2)[nH]c2nc(Cc4ccccc4)nc(N[C@H]4CC[C@H](N(C)C)CC4)c23)n1
41 | 2 to 5 | COC(=O)c1ccc2c(c1)[nH]c1nc(CCc3ccccc3)nc(NCCCN3CCCCC3)c12
42 | 0.5 to 1 | CN1CCN(c2ccc(CNc3nc(Cc4ccccc4)nc4[nH]c5cc(-c6nnn(C)n6)ccc5c34)cc2)CC1
43 | 2 to 5 | c1ccc(-c2ccc3c(c2)[nH]c2ncnc(NCCCN4CCCCC4)c23)cc1
44 | 2 to 5 | COC(=O)c1ccc2c(c1)[nH]c1nc(CN(C)C)nc(NCCCN3CCCCC3)c12
45 | 1 to 2 | COC(=O)c1ccc2c(c1)[nH]c1nc(Cc3cccc(C(=O)C(F)(F)F)c3)nc(NCCCN3CCCCC3)c12
46 | < 0.5 | CCNCCNc1nc(Cc2ccccc2)nc2[nH]c3cc(C(=O)OC)ccc3c12
47 | 2 to 5 | COC(=O)c1cnc2c(c1)[nH]c1nc(C(C)c3ccccc3)nc(NCCCN3CCCCC3)c12 (stereo not shown)
48 | 2 to 5 | COC(=O)c1ccc2c(c1)[nH]c1nc(Cc3ccccc3)nc(NCC3CCCN3)c12 (stereo not shown)

Row | IC50 [µM] | Structure (SMILES)
49 | 2 to 5 | CNCCCNc1ncnc2[nH]c3cc(C(=O)OC)ccc3c12
50 | 1 to 2 | COC(=O)c1ccc2c(c1)[nH]c1nc(Cc3ccccc3)nc(Cl)c12
51 | 0.5 to 1 | CNCCNc1nc(Cc2ccccc2)nc2[nH]c3cc(C(=O)OC)ccc3c12
52 | 1 to 2 | COC(=O)c1ccc2c(c1)[nH]c1nc(Cc3ccccc3)nc(NCCCN3CCCCC3)c12
53 | 2 to 5 | COC(=O)c1ccc2c3c(N(C)CCCN4CCCCC4)ncnc3n(C)c2c1
54 | 2 to 5 | COC(=O)c1ccc2c(c1)[nH]c1ncnc(NCCCN(C)CCCN)c12
55 | 1 to 2 | COC(=O)c1ccc2c(c1)[nH]c1nc(Cc3ccccc3C)nc(NCCCN3CCCCC3)c12
56 | < 0.5 | COC(=O)c1ccc2c(c1)[nH]c1ncnc(NCc3ccccc3CN(C)C)c12
57 | 1 to 2 | Cn1nnc(-c2ccc3c(c2)[nH]c2cc(Cc4ccccc4)nc(NCCCN4CCCCC4)c23)n1
58 | 2 to 5 | COC(=O)c1ccc2c(c1)[nH]c1ncnc(N[C@H]3CC[C@@H](N)CC3)c12
59 | 1 to 2 | COC(=O)c1ccc2c(c1)[nH]c1nc(Cc3ccsc3)nc(NCCCN3CCCCC3)c12
60 | 1 to 2 | CN(CCCN1CCCCC1)c1ncnc2[nH]c3cc(-c4nnn(C)n4)ccc3c12
61 | 1 to 2 | COC(=O)c1ccc2c3c(NCCCN4CCCCC4)ncnc3n(C)c2c1
62 | 2 to 5 | COC(=O)c1ccc2c(c1)[nH]c1nc(Cc3cccc(F)c3)nc(NCCCN3CCCCC3)c12
63 | 2 to 5 | Cn1nnc(-c2ccc3c(c2)[nH]c2ncnc(NCCCNC(=O)C(F)(F)F)c23)n1
64 | 0.5 to 1 | COC(=O)c1ccc2c(c1)[nH]c1nc(Cc3ccccc3)nc(NCC3CCNC3)c12 (stereo not shown)
65 | 2 to 5 | COC(=O)c1ccc2c(c1)[nH]c1nc(Cc3ccccc3)nc(SCCCN3CCCCC3)c12
66 | 2 to 5 | Cc1nc(-c2ccc3c(c2)[nH]c2ncnc(NCCCN4CCCCC4)c23)no1
67 | 2 to 5 | COC(=O)c1ccc2c(c1)[nH]c1nc(Cc3cccs3)nc(NCCCN3CCCCC3)c12
68 | 1 to 2 | COC(=O)c1ccc2c(c1)[nH]c1nc(Nc3ccccc3)nc(NCCCN3CCCCC3)c12
69 | 2 to 5 | COC(=O)c1ccc2c(c1)[nH]c1nc(C)nc(NCCCN(C)CCCN)c12
70 | 1 to 2 | COC(=O)c1ccc2c(c1)[nH]c1cc(Cc3cccc(OC)c3)nc(NCCCCN3CCCC3)c12
71 | 0.5 to 1 | COC(=O)c1ccc2c(c1)[nH]c1nc(Cc3ccccc3)nc(NCCCN(C)CCOCCOCCO)c12
72 | 2 to 5 | CCn1nnc(-c2ccc3c(c2)[nH]c2ncnc(NCCCN4CCCCC4)c23)n1

Row | IC50 [µM] | Structure (SMILES)
73 | 2 to 5 | COC(=O)c1ccc2c(c1)[nH]c1nc(CC3CCCCC3)nc(NCCCN3CCCCC3)c12
74 | 2 to 5 | COC(=O)c1ccc2c(c1)[nH]c1ncnc(NC3CCC(N(C)C)CC3)c12 (stereo not shown)
75 | 2 to 5 | COC(=O)c1ccc2c(c1)[nH]c1ncnc(NCCCN3CCCCC3C)c12 (stereo not shown)
76 | 0.5 to 1 | Cn1nnc(-c2ccc3c(c2)[nH]c2ncnc(N[C@H]4CC[C@H](N(C)C)CC4)c23)n1
77 | 2 to 5 | COC(=O)c1ccc2c(c1)[nH]c1nc(Cc3ccncc3)nc(NCCCN3CCCCC3)c12
78 | 2 to 5 | COC(=O)c1ccc2c(c1)[nH]c1nc(Cc3ccccc3)nc(Nc3cccc(CO)c3)c12
79 | 1 to 2 | COC(=O)c1ccc2c(c1)[nH]c1nc(Cc3ccccc3)nc(NCCCN(C)CCCN)c12
80 | 1 to 2 | COC(=O)c1ccc2c(c1)[nH]c1nc(Cc3ccccc3)nc(NCCN(C)CCN)c12
81 | 2 to 5 | COC(=O)c1ccc2c(c1)[nH]c1nc(Cc3ccccc3)nc(NCC(O)CN3CCCCC3)c12 (stereo not shown)
82 | 1 to 2 | COC(=O)c1ccc2c(c1)[nH]c1cc(Cc3cccc(O)c3)nc(NCCCCN3CCCC3)c12
83 | 2 to 5 | COC(=O)c1ccc2c(c1)[nH]c1cc(Cc3ccsc3)nc(NCCCN3CCCCC3)c12
84 | 2 to 5 | COC(=O)c1ccc2c(c1)[nH]c1ncnc(NCCCN3CCCCC3)c12 [drawing 45]
85 | 0.5 to 1 | COC(=O)c1cnc2c(c1)[nH]c1nc(Cc3ccc4ccccc4c3)nc(N3CCC(N4CCCC4)CC3)c12
86 | 2 to 5 | COC(=O)c1ccc2c(c1)[nH]c1ncnc(NCC#CCN3CCCCC3)c12
87 | 1 to 2 | Cn1nnc(-c2ccc3c(c2)[nH]c2nc(Cc4ccccc4)nc(NCCCNCCCNC(=O)CCCC[C@@H]4SC[C@@H]5NC(=O)N[C@@H]54)c23)n1
88 | 2 to 5 | COC(=O)c1ccc2c(c1)[nH]c1cc(Cc3ccccc3)nc(NCCN3CCCC3)c12
89 | 2 to 5 | COC(=O)c1ccc2c(c1)[nH]c1ncnc(NCC(C)(C)CN)c12
90 | 0.5 to 1 | C#CCCC(=O)NCCCN(C)CCCNc1nc(Cc2ccccc2)nc2[nH]c3cc(C(=O)OC)ccc3c12
91 | 2 to 5 | CCOC(=O)c1ccc2c(c1)[nH]c1nc(Cc3ccccc3)nc(NCCCN3CCCCC3)c12
92 | 2 to 5 | COC(=O)c1ccc2c(c1)[nH]c1nc(Cc3ccccc3)nc(NCCCN(C)CCCNc3ncnc4[nH]c5ccccc5c34)c12
93 | 2 to 5 | COC(=O)c1ccc2c(c1)[nH]c1nc(Cc3ccccc3)nc(NCCCN3CCOCC3)c12
94 | 2 to 5 | Cc1nnc(-c2ccc3c(c2)[nH]c2ncnc(NCCCN4CCCCC4)c23)o1
